Values quoted from earlier work in patent publication US20220079880A1, “SOLID MICELLAR COMPOSITIONS OF CANNABINOID ACIDS” (priority 2019, published 2022).
Read-outs that look alike come from different tables or passages of the source.

What was measured:
[1] = nano-size lipid-based systems
MBS model of epilepsy [2] = details: mice
COX-2 = biological target: T1, COX-2 (Homo sapiens, UniProt P35354)
T1 sequence (P35354 18-604): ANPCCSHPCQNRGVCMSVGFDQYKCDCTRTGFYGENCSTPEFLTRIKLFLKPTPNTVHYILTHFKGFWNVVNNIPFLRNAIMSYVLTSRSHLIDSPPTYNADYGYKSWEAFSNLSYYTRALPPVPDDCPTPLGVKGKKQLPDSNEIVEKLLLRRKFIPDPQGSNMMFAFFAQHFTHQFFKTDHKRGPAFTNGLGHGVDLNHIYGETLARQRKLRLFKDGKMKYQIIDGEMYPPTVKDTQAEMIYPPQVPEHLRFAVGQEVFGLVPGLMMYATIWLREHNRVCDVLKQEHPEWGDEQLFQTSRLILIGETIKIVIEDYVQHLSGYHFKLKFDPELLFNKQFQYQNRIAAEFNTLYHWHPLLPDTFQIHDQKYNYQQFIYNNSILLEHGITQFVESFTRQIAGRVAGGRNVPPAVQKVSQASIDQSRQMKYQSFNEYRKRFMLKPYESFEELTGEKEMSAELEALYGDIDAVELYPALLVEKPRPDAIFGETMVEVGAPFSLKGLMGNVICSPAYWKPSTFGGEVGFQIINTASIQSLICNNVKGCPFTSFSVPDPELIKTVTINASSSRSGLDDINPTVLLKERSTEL

MBS model of epilepsy [3] = details: rats
seizures = details: response = reduced seizure frequency of greater than 50%; surveys
TRPA1 = TRPA1 (Homo sapiens, UniProt O75762)
Sequence of TRPA1 (O75762 whole entry, species assumed): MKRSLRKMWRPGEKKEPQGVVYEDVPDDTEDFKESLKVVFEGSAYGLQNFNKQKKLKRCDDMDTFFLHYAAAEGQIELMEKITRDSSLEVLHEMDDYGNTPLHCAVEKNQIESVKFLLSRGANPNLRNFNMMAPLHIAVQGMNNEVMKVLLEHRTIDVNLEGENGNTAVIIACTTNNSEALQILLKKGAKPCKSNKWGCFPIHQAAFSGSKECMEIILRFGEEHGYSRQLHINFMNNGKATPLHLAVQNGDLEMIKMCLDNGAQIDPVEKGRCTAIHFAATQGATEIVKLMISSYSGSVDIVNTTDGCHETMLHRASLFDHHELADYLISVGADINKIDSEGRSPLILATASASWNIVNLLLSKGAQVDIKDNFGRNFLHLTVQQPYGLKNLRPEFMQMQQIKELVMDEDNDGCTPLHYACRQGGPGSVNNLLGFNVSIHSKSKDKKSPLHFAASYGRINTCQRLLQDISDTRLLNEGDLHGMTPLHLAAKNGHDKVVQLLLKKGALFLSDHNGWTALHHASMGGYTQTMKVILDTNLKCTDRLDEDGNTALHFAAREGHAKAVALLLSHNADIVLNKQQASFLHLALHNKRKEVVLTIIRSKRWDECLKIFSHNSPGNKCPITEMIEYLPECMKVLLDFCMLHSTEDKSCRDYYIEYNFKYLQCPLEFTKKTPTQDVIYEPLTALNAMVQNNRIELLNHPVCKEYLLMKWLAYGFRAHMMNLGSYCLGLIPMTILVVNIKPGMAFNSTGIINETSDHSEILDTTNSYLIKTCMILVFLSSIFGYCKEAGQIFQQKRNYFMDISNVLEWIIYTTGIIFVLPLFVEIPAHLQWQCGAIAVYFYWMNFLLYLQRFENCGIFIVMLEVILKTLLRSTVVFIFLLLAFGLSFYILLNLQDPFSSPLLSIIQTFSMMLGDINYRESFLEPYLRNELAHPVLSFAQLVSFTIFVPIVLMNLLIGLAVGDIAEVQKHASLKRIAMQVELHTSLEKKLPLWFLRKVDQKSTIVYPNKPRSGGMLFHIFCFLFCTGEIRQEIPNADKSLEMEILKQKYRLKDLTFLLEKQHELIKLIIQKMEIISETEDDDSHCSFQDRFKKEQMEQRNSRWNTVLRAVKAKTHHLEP

COX-1 = COX-1 (Homo sapiens, UniProt P23219)
Sequence of COX-1 (P23219 24-599): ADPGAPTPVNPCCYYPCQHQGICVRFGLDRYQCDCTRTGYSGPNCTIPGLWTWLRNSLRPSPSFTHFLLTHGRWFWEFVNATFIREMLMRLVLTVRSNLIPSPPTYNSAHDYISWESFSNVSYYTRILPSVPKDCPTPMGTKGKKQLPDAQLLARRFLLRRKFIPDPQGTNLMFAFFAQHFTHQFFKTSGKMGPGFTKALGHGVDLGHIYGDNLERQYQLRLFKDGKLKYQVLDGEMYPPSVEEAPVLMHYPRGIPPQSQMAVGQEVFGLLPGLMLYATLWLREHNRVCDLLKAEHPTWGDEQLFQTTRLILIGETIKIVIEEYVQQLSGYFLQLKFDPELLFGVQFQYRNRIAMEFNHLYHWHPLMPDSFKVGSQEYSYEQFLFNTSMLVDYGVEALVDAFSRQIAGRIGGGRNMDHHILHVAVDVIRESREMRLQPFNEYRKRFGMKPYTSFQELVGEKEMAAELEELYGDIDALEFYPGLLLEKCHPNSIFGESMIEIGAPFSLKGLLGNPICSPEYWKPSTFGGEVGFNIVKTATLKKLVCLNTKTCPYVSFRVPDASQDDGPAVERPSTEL

GPR-55 = GPR-55 (Homo sapiens, UniProt Q9Y2T6)
Sequence of GPR-55 (Q9Y2T6 whole entry, species assumed): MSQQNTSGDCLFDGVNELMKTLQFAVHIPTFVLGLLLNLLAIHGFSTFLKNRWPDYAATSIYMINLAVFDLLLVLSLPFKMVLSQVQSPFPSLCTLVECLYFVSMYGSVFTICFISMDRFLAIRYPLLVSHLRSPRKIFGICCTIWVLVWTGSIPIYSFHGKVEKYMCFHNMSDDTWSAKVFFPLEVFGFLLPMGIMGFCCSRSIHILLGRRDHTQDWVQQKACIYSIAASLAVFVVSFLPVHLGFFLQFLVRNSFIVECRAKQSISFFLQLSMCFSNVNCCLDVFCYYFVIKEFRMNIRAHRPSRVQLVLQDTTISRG

TRPV1′ = TRPV1′ (Homo sapiens, UniProt Q8NER1)
Sequence of TRPV1′ (Q8NER1 whole entry, species assumed): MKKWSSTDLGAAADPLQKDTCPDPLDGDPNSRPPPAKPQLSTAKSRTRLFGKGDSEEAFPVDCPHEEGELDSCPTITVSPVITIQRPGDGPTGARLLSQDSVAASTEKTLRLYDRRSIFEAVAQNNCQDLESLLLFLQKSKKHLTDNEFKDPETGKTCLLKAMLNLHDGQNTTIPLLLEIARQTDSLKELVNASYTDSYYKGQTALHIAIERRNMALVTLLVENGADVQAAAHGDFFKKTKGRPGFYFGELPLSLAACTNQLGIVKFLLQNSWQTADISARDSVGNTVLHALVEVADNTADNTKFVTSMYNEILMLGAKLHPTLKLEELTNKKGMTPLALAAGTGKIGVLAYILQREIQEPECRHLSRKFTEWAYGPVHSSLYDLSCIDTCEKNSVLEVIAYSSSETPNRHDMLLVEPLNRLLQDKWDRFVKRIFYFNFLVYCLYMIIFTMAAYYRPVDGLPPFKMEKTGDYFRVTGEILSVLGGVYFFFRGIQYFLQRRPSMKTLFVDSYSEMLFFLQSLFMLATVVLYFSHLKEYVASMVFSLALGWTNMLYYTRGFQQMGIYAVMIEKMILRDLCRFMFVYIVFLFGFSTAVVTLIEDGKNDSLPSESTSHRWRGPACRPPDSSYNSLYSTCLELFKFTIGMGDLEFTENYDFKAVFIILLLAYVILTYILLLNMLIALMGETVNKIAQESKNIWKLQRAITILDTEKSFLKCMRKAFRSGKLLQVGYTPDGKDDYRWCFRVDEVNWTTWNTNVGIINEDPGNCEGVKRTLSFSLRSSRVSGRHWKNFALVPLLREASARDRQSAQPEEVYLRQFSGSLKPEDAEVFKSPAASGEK

[4] = system: experimentally induced nausea; details: rats; 5HT1A receptor-mediated
PPARγ = biological target: T2, PPARγ (Homo sapiens, UniProt P37231)
T2 sequence (P37231 1-505): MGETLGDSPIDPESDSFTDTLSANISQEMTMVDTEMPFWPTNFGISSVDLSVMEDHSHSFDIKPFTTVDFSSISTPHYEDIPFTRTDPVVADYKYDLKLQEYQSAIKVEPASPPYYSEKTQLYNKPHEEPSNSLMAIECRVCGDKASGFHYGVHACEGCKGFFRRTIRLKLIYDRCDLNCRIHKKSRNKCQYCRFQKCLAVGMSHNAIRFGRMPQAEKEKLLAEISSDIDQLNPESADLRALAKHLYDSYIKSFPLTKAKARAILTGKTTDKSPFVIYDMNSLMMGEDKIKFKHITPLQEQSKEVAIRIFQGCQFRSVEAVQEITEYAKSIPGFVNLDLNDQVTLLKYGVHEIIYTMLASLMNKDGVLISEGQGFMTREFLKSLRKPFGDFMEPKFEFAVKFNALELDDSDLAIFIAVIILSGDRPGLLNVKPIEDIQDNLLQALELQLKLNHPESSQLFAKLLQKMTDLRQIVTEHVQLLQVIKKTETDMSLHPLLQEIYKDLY

[5] = receptor affinity and effect; purportedly
TRPM8 = TRPM8 (Homo sapiens, UniProt Q7Z2W7)
Sequence of TRPM8 (Q7Z2W7 whole entry, species assumed): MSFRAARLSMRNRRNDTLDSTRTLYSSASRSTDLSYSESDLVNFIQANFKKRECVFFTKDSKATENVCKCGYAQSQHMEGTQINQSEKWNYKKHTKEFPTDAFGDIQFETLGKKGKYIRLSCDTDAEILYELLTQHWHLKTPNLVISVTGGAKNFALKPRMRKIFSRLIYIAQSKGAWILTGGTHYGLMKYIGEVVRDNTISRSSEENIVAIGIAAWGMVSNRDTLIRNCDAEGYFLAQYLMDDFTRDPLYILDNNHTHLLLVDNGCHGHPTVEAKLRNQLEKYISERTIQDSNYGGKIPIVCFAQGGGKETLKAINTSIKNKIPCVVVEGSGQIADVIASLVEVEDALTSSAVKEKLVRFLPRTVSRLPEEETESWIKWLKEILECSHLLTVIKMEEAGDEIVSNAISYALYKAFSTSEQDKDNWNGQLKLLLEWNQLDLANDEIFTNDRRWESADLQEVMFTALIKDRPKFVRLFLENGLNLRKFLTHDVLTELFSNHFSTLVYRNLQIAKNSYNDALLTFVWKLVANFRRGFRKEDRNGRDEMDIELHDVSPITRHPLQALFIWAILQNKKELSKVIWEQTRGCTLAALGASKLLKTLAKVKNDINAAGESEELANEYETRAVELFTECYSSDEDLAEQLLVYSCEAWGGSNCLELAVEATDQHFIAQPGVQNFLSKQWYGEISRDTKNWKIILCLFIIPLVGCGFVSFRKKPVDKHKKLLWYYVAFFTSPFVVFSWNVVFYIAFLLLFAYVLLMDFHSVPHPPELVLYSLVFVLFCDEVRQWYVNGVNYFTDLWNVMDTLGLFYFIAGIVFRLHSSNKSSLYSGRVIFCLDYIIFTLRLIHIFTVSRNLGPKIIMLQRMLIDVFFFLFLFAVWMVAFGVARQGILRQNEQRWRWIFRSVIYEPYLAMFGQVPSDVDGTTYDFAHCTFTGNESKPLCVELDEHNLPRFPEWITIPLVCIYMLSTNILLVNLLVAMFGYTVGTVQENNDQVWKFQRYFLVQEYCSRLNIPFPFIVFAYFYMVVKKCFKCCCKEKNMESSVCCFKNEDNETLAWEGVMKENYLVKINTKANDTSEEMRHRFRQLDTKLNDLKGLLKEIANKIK

[6] = system: MDA-MB-231 human breast cancer cells
5-HT1A receptors = biological target: T3, 5-HT1A receptors (Homo sapiens, UniProt P08908)
T3 sequence (P08908 1-422): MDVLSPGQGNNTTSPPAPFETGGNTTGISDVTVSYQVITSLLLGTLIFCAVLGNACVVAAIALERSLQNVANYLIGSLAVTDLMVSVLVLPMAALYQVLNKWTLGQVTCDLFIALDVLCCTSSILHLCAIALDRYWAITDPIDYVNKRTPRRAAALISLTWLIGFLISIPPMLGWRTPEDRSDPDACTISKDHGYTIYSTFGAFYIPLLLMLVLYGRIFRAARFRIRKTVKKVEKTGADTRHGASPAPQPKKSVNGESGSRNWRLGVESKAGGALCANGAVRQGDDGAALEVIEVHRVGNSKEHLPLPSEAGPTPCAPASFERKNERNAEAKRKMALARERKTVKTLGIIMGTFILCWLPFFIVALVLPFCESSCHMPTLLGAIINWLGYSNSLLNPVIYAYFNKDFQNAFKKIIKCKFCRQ

prostate cancer cells = details: animal studies

C=C(C)[C@@H]1CCC(C)=C[C@H]1c1c(O)cc(CCCCC)cc1O [CBD, cannabidiol]
improvement in BA [1]: 10 ×
ED50 for the MBS model of epilepsy (MBS model of epilepsy [2]): 85 mg/kg
COX-2 inhibition, in words (COX-2; compared with CBDa): not nearly as active
ED50 for the MBS model of epilepsy (MBS model of epilepsy [3]): 89 mg/kg
response rate (seizures): ~47%

C=C(C)[C@@H]1CCC(C)=C[C@H]1c1c(O)cc(CCCCC)c(C(=O)O)c1O [CBDa, cannabidiolic acid]
activity at TRPA1 (TRPA1): agonist
COX-1 inhibition, in words (COX-1): does not inhibit
effect on GPR-55 (GPR-55): inhibitory effects
activity at TRPV1′ (TRPV1′): agonist
effect on experimentally induced nausea [4]: suppressed
PPARγ binding compared with the corresponding neutral cannabinoid (PPARγ): outperform
potency relative to CBD [5]: 1000-4000 ×
activity at TRPM8 (TRPM8): agonist
effect on migration of MDA-MB-231 cells [6]: inhibit migration
concentration that inhibited COX-2 (COX-2): ~2 µM
affinity for 5-HT1A receptors over CBD (5-HT1A receptors): 100 fold

CCCCCc1cc(O)c(C/C=C(\C)CCC=C(C)C)c(O)c1C(=O)O [CBGa, cannabigerolic acid]
PPARγ binding compared with the corresponding neutral cannabinoid (PPARγ): outperform

CCCCCc1cc2c(c(O)c1C(=O)O)[C@@H]1C=C(C)CC[C@H]1C(C)(C)O2 [THCa, tetrahydrocannabinolic acid]
effect on spread of prostate cancer cells (prostate cancer cells): limit the spread
PPARγ binding compared with the corresponding neutral cannabinoid (PPARγ): outperform
